Source: patent US20150133341A1, “Intra-Operative Cancer Diagnosis Based on a Hyperpolarized Marker” (ALBEDA INNOVATIONS APS, priority 2012, published 2015)
Counter-ions that a name gives are not always drawn. Like-named read-outs stand apart in the source and are kept apart here. Marks after values point to notes of the source that are not given here.

How the values were obtained:
[1] = target: T1, CE-2 in lysed human breast cancer cells (MCF-7) (Homo sapiens, UniProt O00748); test: CE-2 activity on acetate esters in lysed MCF-7 cells, 1H NMR; type: biochemical; conditions: for k: 5 million lysed MCF-7 cells, 37° C., 1 hour; for hydrolysis by CE-2, in words: lysed MCF-7 cells
T1 construct: endogenous in cells; host or cells: MCF-7 (sonicated lysate)
T1 sequence (O00748 27-559): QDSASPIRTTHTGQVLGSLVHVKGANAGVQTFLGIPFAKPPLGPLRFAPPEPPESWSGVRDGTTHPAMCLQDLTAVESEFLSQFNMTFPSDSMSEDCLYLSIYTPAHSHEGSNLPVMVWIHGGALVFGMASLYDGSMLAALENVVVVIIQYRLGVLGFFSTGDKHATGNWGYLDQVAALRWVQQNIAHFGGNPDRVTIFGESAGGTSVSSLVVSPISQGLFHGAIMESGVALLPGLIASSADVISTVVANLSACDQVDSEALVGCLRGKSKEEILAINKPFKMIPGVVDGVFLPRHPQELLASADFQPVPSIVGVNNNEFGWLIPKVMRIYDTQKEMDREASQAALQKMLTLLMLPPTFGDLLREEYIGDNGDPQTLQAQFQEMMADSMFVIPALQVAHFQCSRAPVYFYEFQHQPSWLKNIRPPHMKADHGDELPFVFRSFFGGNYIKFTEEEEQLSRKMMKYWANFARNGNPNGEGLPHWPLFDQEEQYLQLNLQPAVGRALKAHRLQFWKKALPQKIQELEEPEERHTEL
Experimental: Different classes of short chain esters, fulfilling the requirements for the hyperpolarization technique (stable, soluble, low molecular weight compounds (<400 Da), were evaluated as substrates for carboxyl esterases with the aim to identify esters as similar or better substrates for carboxyl esterases than 1,3-^13C2 ethyl acetoacetate. In most human cell types, including a wide range of cancer cells and lymphocytes, the activity of carboxyl esterase is dominated by the activities of isoforms 1 and 2 (CE-1 and CE-2). To measure exclusively the hydrolysis of carboxyl esterase from the CE-1 isoform, an isolated enzyme from porcine liver was applied. To measure almost exclusively the contribution of carboxyl esterase activity from the CE-2 isoform, human breast cancer cells (MCF-7) were employed. These cells are known from literature to express CE-2 but not to express CE-1 (Byun et al, 2008, Cancer letters 266:238-48). A group of esters was investigated as substrates for CE-1, which contained different structural features. […] Also esters with large alcohol groups and small acid groups were investigated. In this group, the acid part of the molecule was always acetate and different structural properties of the alcohol were investigated. These consisted of esters of un-substituted alcohols (examples ethyl acetate and butyl acetate), esters of branched chain alcohols (examples t-butyl acetate, ethyl 3-acetoxy butanoate and 2-acetoxy propionate), esters of aromatic alcohols (example benzyl acetate), esters of diols (example ethyleneglycol diacetate), esters of triols (example triacetin). Esters of alpha-keto acids were too unstable to be investigated in this assay. Esters of larger alcohols are not water soluble and therefore not relevant substrates for the purpose of the invention. Similarly, a group of esters which contained different structural features was investigated as substrates for CE-2. CE-2 substrates are described in the literature to consist of a small acid group and a larger alcohol group. All included esters were acetate esters (i.e. esters of acetic acid) in the interest of keeping the acid moiety the smallest possible. The acetate esters measured for CE-2 activity were therefore the same as those measured in the second group of possible substrates for CE-1. The CE-2 experiments were performed with lysed breast cancer cells (MCF-7). MCF-7 cells were grown in RPMI medium with 10% FBS and antibiotics. They were at confluence harvested by trypsination and washed once with 5 ml PBS. They were spun down and resuspended in PBS to a concentration of 20 mill. cells/ml. The cells were hereafter sonicated on ice (50% amplitude, 1 min, 3 sec pulse). 250 μl sonicated cell suspension was mixed with 250 μl 400 mM phosphate buffer pH 7.3. […] The substrate was added (50 μl, 60 mM) and the tube turned for mixing before it was inserted into the spectrometer. An initial spectrum was acquired and the sample was hereafter placed at 37° C. for 1 hour in a water bath. The sample was again inserted into the magnet and a second spectrum was recorded. The data was analysed with MNOVA software and measured as percentage conversion of substrate calculated to account for the amount of substrate converted over 60 min. The numbers are given in μmol/hour.

[2] = tested on: isolated CE-1 enzyme from porcine liver; test: CE-1 activity on short chain esters, 1H NMR; type: biochemical; conditions: for k: 26 μmol substrate, conversion over 60 min; for faster converted than ethyl acetate: vs ethyl acetate
Text: To measure almost exclusively the contribution of carboxyl esterase activity from the CE-2 isoform, human breast cancer cells (MCF-7) were employed. These cells are known from literature to express CE-2 but not to express CE-1 (Byun et al, 2008, Cancer letters 266:238-48). A group of esters was investigated as substrates for CE-1, which contained different structural features. These consisted of esters of un-substituted acids (examples are ethyl acetate, ethyl butyrate, methyl butyrate), esters of acids substituted on C2 (examples are ethyl lactate and ethyl 2-acetoxy propanoate), esters of acids substituted on C3 (examples are ethyl 3-hydroxy butyrate and ethyl 3-acetoxy butanoate), esters of ring closed acids (example ethyl pyroglutamate), esters of di-acids (examples are diethyl succinate and dimethyl succinate), esters of tri-acids (example triethyl citrate), ethyl esters of beta-keto acids (example ethyl acetoacetate). Also esters with large alcohol groups and small acid groups were investigated. In this group, the acid part of the molecule was always acetate and different structural properties of the alcohol were investigated. These consisted of esters of un-substituted alcohols (examples ethyl acetate and butyl acetate), esters of branched chain alcohols (examples t-butyl acetate, ethyl 3-acetoxy butanoate and 2-acetoxy propionate), esters of aromatic alcohols (example benzyl acetate), esters of diols (example ethyleneglycol diacetate), esters of triols (example triacetin). […] Similarly, a group of esters which contained different structural features was investigated as substrates for CE-2. CE-2 substrates are described in the literature to consist of a small acid group and a larger alcohol group. All included esters were acetate esters (i.e. esters of acetic acid) in the interest of keeping the acid moiety the smallest possible. The acetate esters measured for CE-2 activity were therefore the same as those measured in the second group of possible substrates for CE-1.
The CE-1 experiments were performed with commercially available CE-1 from porcine liver. Individual samples of the substrates were all prepared the following way: 26 μmol was weighted in an eppendorf tube. 550 μl deuterated phosphate buffer (200 mM, pH 7.5) was added and the substrate was brought into solution by whirl mixing. The solution was transferred to a 5 mm NMR tube and inserted in the spectrometer at 37° C. A reference experiment was acquired on the substrate solution without enzyme after which 10 μl of an esterase stock solution (37 U/ml in deuterated phosphate buffer) was added in the top of the tube. The sample was mixed and returned to the spectrometer. A series of thermal 1D ^1H NMR experiments were recorded every 5 min for 60 min. The data were analysed with MNOVA software and measured as percentage conversion of substrate calculated to account for the amount of substrate converted over 60 min. The numbers are given in μmol/min.

[3] = tested on: carboxyl esterase in lysed prostate cancer cells (PC-3); test: Carboxyl esterase activity in cell extract, 1H NMR; type: biochemical, human; conditions: for Metabolic conversion, Prostate cancer cells PC-3: 5 million lysed cells, 37° C.
Experimental: (§1) The hydrolysis of the substrates was investigated in cell extracts. To test substrates without isotope labelling for carboxyl esterase activity in a cellular background, a ^1H NMR assay was applied. Human breast cancer cells (MCF-7) and human prostate cancer cells (PC-3) were grown in RPMI medium with 10% FBS and antibiotics. They were at confluence harvested by trypsination and washed once with 5 ml PBS. They were spun down and resuspended in PBS to a concentration of 20 mill. cells/ml. The cells were hereafter sonicated on ice (50% amplitude, 1 min, 3 sec pulse). Human lymphocytes were purified from whole blood. Whole blood samples were drawn from healthy volunteer into heparinised venous blood collection tubes (Venosafe vacumtubes from Terumo). For each experiment, the blood was purified freshly: Three and a half 10 mL tubes of blood were pooled in each of four 50 mL Leucosep (Greiner) tubes prepared with 15 mL Histopaque 1077 (Sigma). The Leucosep tubes were spun for 15 min at 800× g at 24 C. The plasma was removed and the white blood cells were transferred to a 50 mL falcon tube by decanting and diluted 1:2 in PBS-Mg—Ca for a total volume of 50 mL. The cells were sedimented by centrifugation at 250×g for 60 min. Diluting with trypan blue and counting in hemocytometer determined the total number of lymphocytes before sedimentation. All cells were viable and the total number of cells in each cell batch was approx. 60 million. The lymphocytes were redissolved to a concentration of 20 million cells/ml. The cells were hereafter sonicated on ice (50% amplitude, 1 min, 3 sec pulse).
(§2) 250 μl sonicated cell suspension was mixed with 250 μl 400 mM phosphate buffer pH 7.3. This solution was transferred to a 5 mm NMR tube and warmed on a water bath to 37° C. The substrate was added (50 μl, 60 mM) and the tube turned for mixing before it was inserted into the spectrometer. The data was analyzed with MNOVA software and measured as percentage conversion of substrate calculated to account for the amount of substrate converted over 60 min; numbers are given in μmol/hour.

[4] = tested on: carboxyl esterase in lysed breast cancer cells (MCF-7); test: Carboxyl esterase activity in cell extract, 1H NMR; type: biochemical, human; conditions: for Metabolic conversion, Breast cancer cells MCF-7: 5 million lysed cells, 37° C.
Experimental: as §1, §2

[5] = tested on: carboxyl esterase in lysed lymphocytes (B + T cells); test: Carboxyl esterase activity in cell extract, 1H NMR; type: biochemical, human; conditions: 5 million lysed cells, 37° C.
Experimental: as §1, §2

For `CCCCOC(C)=O` [Butyl acetate], the “k” value [1] was 0.24 µmol/min, the “hydrolysis by CE-2, in words” value [1] was “hydrolysed to a similar extent” and the “k” value ([2]; 37° C.) was 0.04 µmol/min.
`CCOC(=O)CCC(=O)OCC` [Diethyl succinate] was tested, and the “Metabolic conversion, Prostate cancer cells PC-3” value [3] was 0.48 µmol/h, the “Metabolic conversion, Breast cancer cells MCF-7” value [4] was 0.12 µmol/h and the “negative contrast, lower than that of EAA” value ([4]; breast cancer cells relative to lymphocytes, cell number basis) was “approx. 3 times”. The “Metabolic conversion, Lymphocytes (B + T cells)” value [5] was 0.60 µmol/h, the “k” value ([2]; 37° C.) was 0.48 µmol/min and the “faster converted than ethyl acetate” value [2] was “more than ten times faster converted”.
With `COC(=O)CCC(=O)OC` [Dimethyl succinate] the “k” value ([2]; 37° C.) was 0.41 µmol/min and the “faster converted than ethyl acetate” value [2] was “more than ten times faster converted”.
With `CCOC(=O)CC(C)O` (stereo not shown) [Ethyl 3-Hydroxybutyrate] the “k” value ([2]; 37° C.) was 0.08 µmol/min.
In the case of `CCOC(=O)CC(C)=O` [Ethyl acetoacetate], the “Metabolic conversion, Prostate cancer cells PC-3” value [3] is reported as 0* umol/hour, the “contrast in prostate cancer cells relative to lymphocytes, in words” value ([3]; cell number basis, FIG. 9B) is reported as “highest negative contrast” and the “Metabolic conversion, Breast cancer cells MCF-7” value [4] is reported as 0* umol/hour. For the same compound, the “contrast in breast cancer cells relative to lymphocytes, in words” value ([4]; cell number basis, FIG. 9A) was “highest contrast”, the “Metabolic conversion, Lymphocytes (B + T cells)” value [5] was 0.15 µmol/h and the “k” value ([2]; 37° C.) was 0.12 µmol/min.
For `CCOC(=O)C(C)O` (stereo not shown) [Ethyl lactate], the “k” value ([2]; 37° C.) was 0.11 µmol/min.
`CCOC(=O)[C@@H]1CCC(=O)N1` [Ethyl pyroglutamate] was tested, and the “conversion by CE-1, in words” value [2] was “only hydrolyzed to a very low extent”, the “k” value ([2]; 37° C.) was 0.02 µmol/min and the “conversion by CE-1, in words” value ([2]; listed as ethyl ester of pyroglutamate) was “barely detectable”.
`CCOC(C)=O` [Ethylacetate] was tested, and the “k” value [1] was 0 µmol/min, the “hydrolysis by CE-2, in words” value [1] was “not hydrolysed” and the “conversion by CE-1, in words” value [2] was “not a good substrate”. For the same compound, the “k” value ([2]; 37° C.) was 0.03 µmol/min.
`CCCC(=O)OCC` [Ethylbutyrate] was tested, and the “k” value ([2]; 37° C.) was 0.12 µmol/min.
In the case of `CC(=O)OCCOC(C)=O` [Ethyleneglycol diacetate], the “k” value [1] is reported as 0.18 µmol/min and the “k” value ([2]; 37° C.) is reported as 0.07 µmol/min.
`CCCC(=O)OC` [Methylbutyrate] was tested, and the “Metabolic conversion, Prostate cancer cells PC-3” value [3] was 0.51 µmol/h, the “Metabolic conversion, Breast cancer cells MCF-7” value [4] was 0.42 µmol/h and the “Metabolic conversion, Lymphocytes (B + T cells)” value [5] was 0.90 µmol/h. For the same compound, the “k” value ([2]; 37° C.) was 0.22 µmol/min.
`CC(=O)OC(C)(C)C` [Tert-butyl acetate] was tested, and the “k” value ([2]; 37° C.) was 0 µmol/min.
For `CCOC(=O)CC(O)(CC(=O)OCC)C(=O)OCC` [Triethyl citrate], the “conversion by CE-1, in words” value [2] was “only hydrolyzed to a very low extent”, the “k” value ([2]; 37° C.) was 0 µmol/min and the “conversion by CE-1, in words” value ([2]; listed as triethyl citrate) was “no hydrolysis could be detected”.
For `CCOC(=O)C(C)OC(C)=O` (stereo not shown) [ethyl 2-acetoxy propanoate], the “hydrolysis by CE-2, in words” value [1] was “hydrolysed to a similar extent”, the “k (μmol/min), acetate ester” value ([2]; hydrolysis of the acetate ester function, 37° C., 60 min) was 0 µmol/min and the “k (μmol/min), ethyl ester” value ([2]; hydrolysis of the ethyl ester function, 37° C., 60 min) was 0.16 µmol/min.
